Data as given in publication PMC6254728, “Synthesis and Anti-Human Immunodeficiency Virus Type 1 Activity of (E)-N-Phenylstyryl-N-alkylacetamide Derivatives” (Molecules, 2009).

Molecular target: T1, HIV-1 reverse transcriptase (HIV-1 RT) (HIV-1 M:B_HXB2R, UniProt P04585)
T1 construct: gene gag-pol; recombinant HIV-1 RT used with commercial ELISA kit (Roche Molecular Biochemicals); mature chains cut from Gag-Pol polyprotein; with p51 RT
Assay: RT ELISA (DIG-labelled reaction mixture, anti-DIG-POD, ABTS; Roche kit)
Format: biochemical
Conditions: 37 °C, 15 h
Description: RT ELISA (DIG-labelled reaction mixture, anti-DIG-POD, ABTS; Roche kit) on HIV-1 reverse transcriptase (HIV-1 RT)

Compound	IC50
CC(=O)N(C)/C=C/c1ccccc1Br [5c, (E)-N-(2-bromostyryl)-N-methylacetamide]	339 ± 107 µM
CC(=O)N(/C=C/c1ccccc1Br)C(C)=O [5f, (E)-N-(2-bromostyryl)-N-acetylacetamide]	320 ± 22 µM
CC(=O)N(/C=C/c1ccccc1Br)Cc1c(F)cccc1F [5h, (E)-N-(2-bromostyryl)-N-2’,6’-difluorobenzylacetamide]	295 ± 9 µM
CC(=O)N(/C=C/c1ccccc1Br)Cc1cc(F)cc(F)c1 [5i, (E)-N-(2-bromostyryl)-N-3’,5’-difluorobenzylacetamide]	97 ± 13 µM
CC(=O)N(C)/C=C/c1ccccc1Cl [5k, (E)-N-(2-chlorostyryl)-N-methylacetamide]	434 ± 44 µM
CCN(/C=C/c1ccccc1Cl)C(C)=O [5l, (E)-N-(2-chlorostyryl)-N-ethylacetamide]	521 ± 11 µM
CC(=O)N(C)/C=C/c1ccccc1F [5n, (E)-N-(2-fluorostyryl)-N-methylacetamide]	477 ± 107 µM
CC(=O)N(C)/C=C/c1ccccc1C [5p, (E)-N-(2-methylstyryl)-N-methylacetamide]	487 ± 27 µM
COc1ccc(/C=C/N(C)C(C)=O)c(OC)c1 [5r, (E)-N-(2,4-dimethoxystyryl)-N-methylacetamide]	373 ± 40 µM
O=C(O)P(=O)(O)O [PFA, reference compound]	5 µM
